# Data published in publication PMC10322960 (European Journal of Drug Metabolism and Pharmacokinetics, 2023).
# Entries after “also recorded” stand apart in the source; their conditions may differ. Where two headings read alike, the source gives them in different places.
# Tests used:
# [1] = target: T1, OATP1B1 (Homo sapiens, UniProt Q9Y6L6); assay: OATP1B1 uptake substrate assay; format: in vitro ADME
# T1 sequence (Q9Y6L6 1-691): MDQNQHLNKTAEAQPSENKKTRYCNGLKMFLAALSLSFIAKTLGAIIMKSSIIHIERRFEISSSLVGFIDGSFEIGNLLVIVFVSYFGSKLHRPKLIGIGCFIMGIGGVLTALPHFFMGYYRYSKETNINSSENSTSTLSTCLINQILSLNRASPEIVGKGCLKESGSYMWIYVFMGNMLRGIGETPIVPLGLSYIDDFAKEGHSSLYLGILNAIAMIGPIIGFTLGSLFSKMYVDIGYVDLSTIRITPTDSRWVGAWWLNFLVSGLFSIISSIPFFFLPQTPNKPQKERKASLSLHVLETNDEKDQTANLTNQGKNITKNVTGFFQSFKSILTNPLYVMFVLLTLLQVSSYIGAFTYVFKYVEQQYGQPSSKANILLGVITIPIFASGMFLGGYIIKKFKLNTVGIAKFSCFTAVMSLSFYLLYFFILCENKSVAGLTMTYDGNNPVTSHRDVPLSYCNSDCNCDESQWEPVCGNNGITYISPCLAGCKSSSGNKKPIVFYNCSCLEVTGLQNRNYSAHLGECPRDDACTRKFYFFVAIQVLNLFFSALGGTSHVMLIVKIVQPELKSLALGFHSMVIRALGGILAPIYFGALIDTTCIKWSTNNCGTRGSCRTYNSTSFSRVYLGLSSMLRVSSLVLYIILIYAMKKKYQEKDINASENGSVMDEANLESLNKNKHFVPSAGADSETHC
# [2] = target: T2, MATE1 (Homo sapiens, UniProt Q96FL8); assay: MATE1 uptake substrate assay; format: in vitro ADME
# T2 sequence (Q96FL8 1-570): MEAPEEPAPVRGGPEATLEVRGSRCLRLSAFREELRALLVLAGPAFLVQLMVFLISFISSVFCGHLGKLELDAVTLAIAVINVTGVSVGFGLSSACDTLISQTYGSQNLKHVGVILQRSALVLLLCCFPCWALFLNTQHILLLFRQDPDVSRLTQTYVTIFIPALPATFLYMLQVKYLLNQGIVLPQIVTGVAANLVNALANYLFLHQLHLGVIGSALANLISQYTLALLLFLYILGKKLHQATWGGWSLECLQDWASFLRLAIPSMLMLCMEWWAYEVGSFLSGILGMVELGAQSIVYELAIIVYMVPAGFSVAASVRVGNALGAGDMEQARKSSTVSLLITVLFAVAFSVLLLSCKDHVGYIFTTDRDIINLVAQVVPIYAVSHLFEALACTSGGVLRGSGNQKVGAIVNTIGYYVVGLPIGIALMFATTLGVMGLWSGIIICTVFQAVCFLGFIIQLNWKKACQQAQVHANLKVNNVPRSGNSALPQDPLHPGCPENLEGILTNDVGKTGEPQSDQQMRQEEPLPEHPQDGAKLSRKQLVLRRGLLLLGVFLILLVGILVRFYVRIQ
# [3] = target: T3, BCRP (Homo sapiens, UniProt Q9UNQ0); assay: BCRP vesicular transport inhibition assay; format: in vitro ADME
# T3 sequence (Q9UNQ0 1-655): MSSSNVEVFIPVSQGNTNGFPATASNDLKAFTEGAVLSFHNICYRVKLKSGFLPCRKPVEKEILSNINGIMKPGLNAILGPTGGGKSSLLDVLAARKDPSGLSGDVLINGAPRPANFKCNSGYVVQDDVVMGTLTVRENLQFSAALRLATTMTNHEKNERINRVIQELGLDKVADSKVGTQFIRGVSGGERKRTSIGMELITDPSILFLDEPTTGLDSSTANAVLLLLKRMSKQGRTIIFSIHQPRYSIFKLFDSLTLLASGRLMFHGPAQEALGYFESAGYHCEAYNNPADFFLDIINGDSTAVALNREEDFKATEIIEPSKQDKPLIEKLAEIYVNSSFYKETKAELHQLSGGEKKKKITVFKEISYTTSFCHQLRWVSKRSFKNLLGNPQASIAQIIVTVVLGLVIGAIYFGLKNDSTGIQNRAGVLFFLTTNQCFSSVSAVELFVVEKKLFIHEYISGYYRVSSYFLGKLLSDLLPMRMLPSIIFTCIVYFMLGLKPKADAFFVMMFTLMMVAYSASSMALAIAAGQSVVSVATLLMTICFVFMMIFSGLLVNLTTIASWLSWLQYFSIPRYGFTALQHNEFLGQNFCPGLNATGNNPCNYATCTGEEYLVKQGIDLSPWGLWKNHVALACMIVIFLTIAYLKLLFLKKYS
# [4] = target: T2, MATE1; assay: MATE1 uptake inhibition assay; format: in vitro ADME
# [5] = target: CYP3A4 (Homo sapiens, UniProt P08684); format: in vitro ADME
# Chain of CYP3A4 (P08684 whole entry): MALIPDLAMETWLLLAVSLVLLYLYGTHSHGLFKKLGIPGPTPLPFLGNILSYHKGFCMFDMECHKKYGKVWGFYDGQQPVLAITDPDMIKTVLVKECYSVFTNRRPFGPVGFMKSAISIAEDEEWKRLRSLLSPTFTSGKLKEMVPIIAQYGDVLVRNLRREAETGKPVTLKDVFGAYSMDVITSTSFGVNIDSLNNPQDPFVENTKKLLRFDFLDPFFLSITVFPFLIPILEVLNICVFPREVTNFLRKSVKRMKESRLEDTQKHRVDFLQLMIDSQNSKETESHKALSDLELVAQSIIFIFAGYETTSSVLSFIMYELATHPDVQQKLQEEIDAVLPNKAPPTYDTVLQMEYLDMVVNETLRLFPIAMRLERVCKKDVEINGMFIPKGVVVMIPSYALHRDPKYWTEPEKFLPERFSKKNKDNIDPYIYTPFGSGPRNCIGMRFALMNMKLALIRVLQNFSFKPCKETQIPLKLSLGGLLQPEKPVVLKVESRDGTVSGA
# [6] = target: MATE2-K (Homo sapiens, UniProt Q86VL8); assay: MATE2-K uptake substrate assay; format: in vitro ADME
# Chain of MATE2-K (Q86VL8 1-566 isoform Q86VL8-3): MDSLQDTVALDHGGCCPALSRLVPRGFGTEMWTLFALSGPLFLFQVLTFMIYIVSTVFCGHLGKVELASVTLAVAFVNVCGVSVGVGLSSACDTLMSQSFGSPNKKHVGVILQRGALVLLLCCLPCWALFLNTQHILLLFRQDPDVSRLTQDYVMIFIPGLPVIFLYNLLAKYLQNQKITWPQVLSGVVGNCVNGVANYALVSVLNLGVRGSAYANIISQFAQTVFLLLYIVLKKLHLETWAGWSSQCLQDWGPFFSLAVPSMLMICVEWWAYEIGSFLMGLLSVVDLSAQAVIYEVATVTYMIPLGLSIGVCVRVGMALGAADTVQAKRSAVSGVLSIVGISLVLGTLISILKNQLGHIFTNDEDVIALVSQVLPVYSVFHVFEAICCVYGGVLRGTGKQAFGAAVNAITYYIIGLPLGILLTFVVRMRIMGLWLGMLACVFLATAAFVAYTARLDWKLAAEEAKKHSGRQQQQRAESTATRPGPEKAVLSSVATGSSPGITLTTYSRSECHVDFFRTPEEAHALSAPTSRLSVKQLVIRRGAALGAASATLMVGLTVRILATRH
# [7] = Phase 1 clinical drug–drug interaction study, safety assessment; format: in vivo, human
# [8] = target: T1, OATP1B1; assay: OATP1B1 uptake inhibition assay; format: in vitro ADME
# [9] = target: MDR1 (Homo sapiens, UniProt P08183); assay: MDR1 monolayer substrate assay; format: in vitro ADME
# Chain of MDR1 (P08183 whole entry): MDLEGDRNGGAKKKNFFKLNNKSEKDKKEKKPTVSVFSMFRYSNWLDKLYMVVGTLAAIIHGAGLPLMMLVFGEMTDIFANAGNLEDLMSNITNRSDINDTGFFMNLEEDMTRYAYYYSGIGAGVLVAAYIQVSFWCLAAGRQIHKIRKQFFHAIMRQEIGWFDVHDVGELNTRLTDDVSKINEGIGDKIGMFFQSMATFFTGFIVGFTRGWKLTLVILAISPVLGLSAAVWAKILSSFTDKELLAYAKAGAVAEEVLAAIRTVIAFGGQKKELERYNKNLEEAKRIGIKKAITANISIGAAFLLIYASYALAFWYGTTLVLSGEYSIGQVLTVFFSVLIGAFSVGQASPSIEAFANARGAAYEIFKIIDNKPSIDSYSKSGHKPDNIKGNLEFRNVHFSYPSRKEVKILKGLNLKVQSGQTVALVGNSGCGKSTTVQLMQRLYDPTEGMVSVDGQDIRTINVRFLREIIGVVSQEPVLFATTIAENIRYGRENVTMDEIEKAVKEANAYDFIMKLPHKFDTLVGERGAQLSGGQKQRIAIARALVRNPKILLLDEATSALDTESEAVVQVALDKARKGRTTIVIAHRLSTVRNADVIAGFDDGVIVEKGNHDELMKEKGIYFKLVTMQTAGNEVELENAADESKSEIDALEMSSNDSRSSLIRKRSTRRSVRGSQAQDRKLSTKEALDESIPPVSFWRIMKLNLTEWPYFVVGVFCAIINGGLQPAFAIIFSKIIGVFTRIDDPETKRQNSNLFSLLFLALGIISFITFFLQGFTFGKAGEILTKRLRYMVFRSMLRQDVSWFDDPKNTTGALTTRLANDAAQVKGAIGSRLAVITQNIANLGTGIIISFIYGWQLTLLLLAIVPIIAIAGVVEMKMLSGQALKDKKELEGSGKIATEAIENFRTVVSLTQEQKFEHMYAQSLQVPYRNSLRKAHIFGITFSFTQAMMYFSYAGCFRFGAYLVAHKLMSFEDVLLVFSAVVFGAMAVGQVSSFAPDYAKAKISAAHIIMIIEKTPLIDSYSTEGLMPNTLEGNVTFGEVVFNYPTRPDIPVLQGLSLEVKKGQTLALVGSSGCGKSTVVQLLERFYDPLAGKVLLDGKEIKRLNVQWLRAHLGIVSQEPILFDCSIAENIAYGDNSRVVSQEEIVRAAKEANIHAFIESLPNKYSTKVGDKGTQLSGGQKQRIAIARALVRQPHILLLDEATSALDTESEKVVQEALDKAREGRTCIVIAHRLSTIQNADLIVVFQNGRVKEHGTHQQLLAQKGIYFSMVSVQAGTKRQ
# [10] = transporter-expressing vs control cells, 0.04–40 µm
# [11] = Cohort 2, 12 subjects, mild in severity
# [12] = rifampin cohort, 12 participants
smiles,measurement,setting,value
"N#Cc1ccc(N2N=C3c4ccc(C(=O)N5CCC(O)CC5)nc4CC[C@@H]3[C@@H]2C2CCCC2)cc1Cl [Ocedurenone, ocedurenone]","Substrate, OATP1B1 UPT",[1],not likely to be a substrate
same,"Maximum fold accumulation, OATP1B1 UPT",[1]; [10],1.0
same,"Substrate, MATE1 UPT",[2],not likely to be a substrate
same,"Maximum fold accumulation, MATE1 UPT",[2]; [10],1.0
same,inhibition of BCRP at 40 µM,"[3]; first vesicular transport run, 40 µM",98%
same,maximum inhibition of BCRP-mediated transport,"[3]; repeat with 7 concentrations, at 40 µm",98%
same,maximum inhibition of MATE1-mediated probe substrate accumulation,[4]; at 40 µM,95%
same,IC50,"[4]; read-out: Inhibition results (IC50), MATE1 UPT, probe metformin (10 µm), Table 1",6.7 µM
same,percent remaining activity of CYP3A4 (midazolam-based),"[5]; ocedurenone at 200 μM, midazolam probe",70.2%
same,percent remaining activity of CYP3A4 (testosterone-based),"[5]; ocedurenone at 200 μM, testosterone probe",68.1%
same,IC50,"[5]; read-out: IC50 CYP3A4 (midazolam-based), midazolam probe",> 200 µM
same,IC50,"[5]; read-out: IC50 CYP3A4 (testosterone-based), testosterone probe",> 200 µM
same,inhibition category CYP3A4,[5]; recombinant enzyme,little or no inhibition
same,"Substrate, MATE2-K UPT",[6],not likely to be a substrate
same,"Maximum fold accumulation, MATE2-K UPT",[6]; [10],< 2
same,treatment-emergent AEs considered related to ocedurenone,"[7]; Cohort 1 (itraconazole cohort), 12 subjects",No treatment-emergent AEs; also recorded: no treatment-emergent adverse events
same,number of treatment-emergent AEs considered related to the drug,[7]; [11],5
same,subjects with treatment-emergent AEs considered related to the drug,[7]; [11],25.0%
same,participants with headache (TEAE related to ocedurenone),[7]; [12],16.7%
same,participants with hyperhidrosis (TEAE related to ocedurenone),[7]; [12],8.3%
same,participants with nausea (TEAE related to ocedurenone),[7]; [12],8.3%
same,participants with nervousness (TEAE related to ocedurenone),[7]; [12],8.3%
same,tolerability,"[7]; single 0.5-mg dose alone and with itraconazole or rifampin, healthy participants",safe and well-tolerated
same,maximum inhibition of OATP1B1-mediated probe substrate accumulation,[8]; at 40 µM,72%
same,IC50,"[8]; read-out: Inhibition results (IC50), OATP1B1 UPT, uptake assay",21.9 µM
same,"Substrate, MDR1 ML",[9],likely a substrate
